The test system of experiment [1] is senescent cells. The experiment can be described thus: Evaluation of senolytic effects in cell culture. Type of experiment: cell-based. From the text:
Genetic knockdown of this gene kills senescent cells.
There are some commercially available analogs of 25HC such as oxysterols (Griffiths et al. (2019) Biochem Soc Trans., 47: 517-526).

Experiment [2] deals with aged female C57BL/6J p16-3MR mice. The experiment can be described thus: Pulsed wave velocity (PWV) of the aorta by doppler imaging in aged mice. Type of experiment: in vivo, mouse. Conditions: 27 months at baseline, 25HC 50 mpk IP or GCV, 1 and 2 months post treatment, vs untreated controls. The procedure: At baseline, animals were evaluated for blood flow in the aorta using doppler imaging. This determines a measure of vascular stiffness with vessels being more stiff having faster flow.

Experiment [3] deals with CRYAB. Conditions: Makley et al. (2015) Science, 350: 674-7; cited from earlier work.
For experiment [4], the system named is senescent FAPs. The experiment can be described thus: Cell viability assay on NS and SEN FAPs treated with 25HC. Type of experiment: cell-based, mouse. Conditions: 25HC started immediately after removing DMSO/Doxo (early time point), total 5 days. The procedure:
Panel A) Timeline for DMSO/Doxo treatment and early-time point timeline for 25HC treatment on NS and SEN cells. 25HC treatment was started immediately after removing DMSO/Doxo. Panel B) Cell viability assay was performed on NS and SEN cells treated with different concentrations of 25HC. 25HC treatment was done for total 5 days. The value was normalized to that of 0 uM. The average value of 0 M is expressed as 100% (Mean +/−SE, n=3, **p<0.01 and ***p<0.001 by student's t-test vs NS).

Experiment [5] deals with senescent mDFs. The experiment can be described thus: Cell viability assay on NS and SEN mDFs treated with 25HC. The experiment is classed as cell-based, mouse. Conditions: 72 hrs. The procedure: Panel A) Timeline for DMSO/Doxo treatment and early-time point timeline for 25HC treatment on NS and SEN cells. 25HC treatment was started immediately after removing DMSO/Doxo. Panel B) Cell viability assay was performed on NS and SEN cells treated with different concentrations of 25HC. 25HC treatment was done for 72 hrs. (Mean +/−SD, n=3, *p<0.05, **p<0.01 vs 0 uM by student's t-test).
Panel A) Timeline for DMSO/Doxo treatment and late-time point timeline for 25HC treatment on NS and SEN cells. 25HC treatment was started 7 days after removing DMSO/Doxo. Panel B) Cell viability assay was performed on NS and SEN cells treated with different concentrations of 25HC. 25HC treatment was done for 72 hrs. (Mean +/−SD, n=6, **p<0.01, ***p<0.001, ****p<0.0001, vs 0 uM by student's t-test).

Experiment [6] relates to senescent human fetal lung fibroblast (IMR-90). The experiment can be described thus: Cell viability assay (Cell Counting Kit-8) on NS and SEN IMR-90 cells. The experiment is classed as cell-based. Conditions: treatment started immediately after removing DMSO/250 nM Doxo, 72 hrs. The procedure:
Panel A) Timeline for DMSO/250 nM Doxo treatment and early-time point timeline for 24(S)-HC and 27HC treatment on NS and SEN cells. 24(S)HC and 27HC treatment were started immediately after removing DMSO/Doxo. Panel B) and C) Cell viability assay were performed on NS and SEN cells treated with different concentrations of 24(S)HC and 27HC, respectively. 24(S)HC and 27HC treatment were done for 72 hrs. The cell viability was analyzed by Cell Counting Kit-8 according to the manufactures' protocol using Spectra Max 190 (Molecular Devices). The value was normalized to that of DMSO. (Mean +/−SE, n=3, *p<0.05, **p<0.01 and ***p<0.001 by student's t-test).
For orientation: Formazan colour is commonly taken as a measure of viable cells.

Experiment [7] has as its system mouse primary fibro adipogenic progenitors (FAPs). The experiment can be described thus: qPCR of senescence marker and CRYAB mRNA in Doxo treated FAPs. The experiment is classed as cell-based. Conditions: normalized to β-actin, vs DMSO. The procedure: As shown, FAPs undergo senescence upon 250 nM of Doxo treatment for 24 hours (Day 0). The mRNA was extracted from DMSO treated NS or Doxo treated SEN FAPs at indicated time points and quantified by qPCR. The amount of mRNA was normalized to the level of β-actin. The graphs show the relative levels of p16INK4a mRNA for DMSO and Doxo treated samples. The average value of DMSO is expressed as 1 (Mean +/−SE, n=3, *p<0.05 by Dunnett's multiple comparisons test vs DMSO).
The cells were treated with 250 nM doxorubicin and incubated for 24 hrs (Day 0). The mRNA was extracted from DMSO treated NS or Doxo treated SEN FAPs at the indicated time points and quantified by qPCR. The amount of mRNA was normalized to the level of β-actin mRNA. The average value of DMSO is expressed as 1 (Mean +/−SE, n=3, **p<0.01 and ***p<0.001 by Dunnett's multiple comparisons test vs DMSO).
(In general: In qPCR the cycle at which signal appears reflects the starting amount.)

Experiment [8] has as its system mouse dermal fibroblasts (mDFs). The experiment can be described thus: qPCR of senescence marker and CRYAB mRNA in Doxo treated mDFs. The experiment is classed as cell-based. Conditions: 250 nM Doxo for 24 hours; day 1, 5, 14; normalized to β-actin, vs DMSO. The procedure:
As shown, mDFs undergo senescence upon 250 nM of Doxo treatment for 24 hours (Day 0). Real-time quantitative PCR (qPCR) was performed on RNA samples isolated from DMSO treated NS (Non-Senescent) mDF cells or Doxo treated SEN (Senescent) mDF cells at day 1, 5, and 14 after Doxo treatment. The amount of mRNA was normalized to the level of β-actin (see, e.g., Demaria et al. (2017) Cancer Discovery, 2: 165-176; and references cited therein). Relative levels of p16INK4a mRNA for DMSO and Doxo treated mDFs was measured. The average value of DMSO is expressed as 1. (Mean +/−SE, n=4, **p<0.01, ****p<0.0001 by Dunnett's multiple comparisons test vs DMSO).
Real-time quantitative PCR (qPCR) was performed on RNA samples isolated from DMSO treated NS mDF cells or Doxo treated SEN mDF cells at day 1, 5, and 14 after Doxo treatment. The amount of mRNA was normalized to the level of β-actin (see, e.g., Demaria et al. (2017) Cancer Discovery, 2: 165-176; and references cited therein). Relative levels of CRYAB mRNA for DMSO and Doxo treated mDFs was measured. The average value of DMSO is expressed as 1. (Mean +/−SE, n=4, *p<0.05, ***p<0.001 by Dunnett's multiple comparisons test vs DMSO).

“Also recorded” adds a separate entry of the source.

Regarding `C[C@H](CCCC(C)(C)O)[C@H]1CC[C@H]2[C@@H]3[C@H](O)C=C4C[C@@H](O)CC[C@]4(C)[C@H]3CC[C@]12C` [7α,25-Dihydroxycholesterol], the senolytic effect result in experiment [1] is listed as “novel senolytics”.

On to `C[C@H](CCCC(C)(C)O)[C@H]1CC[C@H]2[C@@H]3CC=C4C[C@@H](O)CC[C@]4(C)[C@H]3CC[C@]12C` [25HC, 25-hydroxycholesterol], for which the senolytic effect entry in experiment [1] was “novel senolytic agent”. Besides, the “pulsed wave velocity (PWV) of the aorta” value in experiment [2] was “reduces PWV”. Moreover, the “inhibition of CRYAB” value in experiment [3] is “effective inhibitor of CRYAB”. Moreover, in experiment [4], the “cell viability of senescent vs non-senescent FAPs” value was “specifically kills senescent FAPs”. Besides, the “cell viability of senescent vs non-senescent mDFs, late time point” value in experiment [5] (25HC started 7 days after removing DMSO/Doxo) was “specifically kills senescent mDFs”. Besides, the “cell viability of senescent vs non-senescent mDFs, early time point” value in experiment [5] (25HC started immediately after removing DMSO/Doxo) is “specifically kills senescent mDFs”.

As to `CC(C)[C@@H](O)CC[C@@H](C)[C@H]1CC[C@H]2[C@@H]3CC=C4C[C@@H](O)CC[C@]4(C)[C@H]3CC[C@]12C` [24(S)HC, 24(S)-Hydroxycholesterol], in experiment [1], the senolytic effect result is listed as “novel senolytics”. Also, the “cell viability of senescent vs non-senescent IMR-90 cells” value in experiment [6] is reported as “specifically kill senescent human fetal lung fibroblast; also recorded: specifically kill senescent IMR-90 cells”.

As for `CC(C)CCC[C@@H](C)[C@H]1CC[C@H]2[C@@H]3[C@@H](O)C=C4C[C@@H](O)CC[C@]4(C)[C@H]3CC[C@]12C` [7βHC, 7β-Hydroxycholesterol], in experiment [1], the senolytic effect entry is on record as “novel senolytics”.

Consider `CC(CCCN(C)C)C1CCC2C3CC=C4C[C@@H](O)CC[C@]4(C)C3CC[C@]12C` (stereo partly drawn) [(3S,10R,13R)-17-(5-(dimethylamino)pentan-2-yl)-10,13-dimethyl-2,3,4,7,8,9,10,11,12,13,14,15,16,17-tetradecahydro-1H-cyclopenta[a]phenanthren-3-ol], for which, in experiment [1], the senolytic effect entry was “novel senolytics”.

In the case of `C[C@H](CCC(=O)O)[C@H]1CCC2[C@@H]3CC=C4C[C@H](O)CC[C@]4(C)C3CC[C@@]21C` (stereo partly drawn) [(3alpha,9xi,14xi)-3-hydroxychol-5-en-24-oic acid], in experiment [1], the senolytic effect result was “novel senolytics”.

In the case of `COc1cccc2c1C(=O)c1c(O)c3c(c(O)c1C2=O)C[C@@](O)(C(=O)CO)C[C@@H]3O[C@H]1C[C@H](N)[C@H](O)[C@H](C)O1` [Doxo, doxorubicin], the “senescence induction (relative level of p16INK4a mRNA)” value in experiment [7] (250 nM Doxo for 24 hours) is “induced senescence”. Further, the “expression of CRYAB mRNA” value in experiment [7] (250 nM doxorubicin for 24 hrs) is “significantly increased”. In experiment [8], the “relative level of CRYAB mRNA” value was “upregulated CRYAB” and the “relative level of p16INK4a mRNA” value was “induces senescence marker, p16INK4a”.

`Nc1nc(O)c2ncn(COC(CO)CO)c2n1` [GCV, ganciclovir, reference compound]: the “pulsed wave velocity (PWV) of the aorta” value in experiment [2] was “reduces PWV”.

Turning to `CC(C)CC[C@@H](O)[C@@H](C)[C@H]1CC[C@H]2[C@@H]3CC=C4C[C@@H](O)CC[C@]4(C)[C@H]3CC[C@]12C` [22(R)HC, 22(R)-Hydroxycholesterol], in experiment [1], the senolytic effect result was “novel senolytics”.

Take `C[C@@H](CCCC(C)(O)c1ccccc1)C1CCC2C3CC=C4C[C@H](O)CC[C@@]4(C)C3CC[C@]21C` (relative stereo) [rel-(3R,10S,13S)-17-[(2S)-6-hydroxy-6-phenylheptan-2-yl]-10,13-dimethyl-2,3,4,7,8,9,10,11,12,13,14,15,16,17-tetradecahydro-1H-cyclopenta[a]phenanthren-3-ol]: the senolytic effect result in experiment [1] is on record as “novel senolytics”.

In the case of `CC(C)CCC[C@@H](C)[C@H]1CC[C@H]2[C@@H]3[C@H](O)C=C4C[C@@H](O)CC[C@]4(C)[C@H]3CC[C@]12C` [7αHC, 7α-Hydroxycholesterol], the senolytic effect result in experiment [1] is given as “novel senolytics”.

Take `C=C1CC[C@@H](O)CC1=C/C=C1\CCC[C@]2(C)[C@@H]([C@H](C)CCCC(C)(C)O)CC[C@@H]12` [Calcifediol 25-Hydroxyvitamin D3, reference compound]: the senolytic effect entry in experiment [1] was “novel senolytics”.

Turning to `CC(=O)CCC[C@@H](C)[C@H]1CC[C@H]2[C@@H]3CC=C4C[C@@H](O)CC[C@]4(C)[C@H]3CC[C@]12C` [27-Nor-25-ketocholesterol], the senolytic effect entry in experiment [1] is listed as “novel senolytics”.

`C[C@@H](CO)CCC[C@@H](C)[C@H]1CC[C@H]2[C@@H]3CC=C4C[C@@H](O)CC[C@]4(C)[C@H]3CC[C@]12C` [27HC, 27-Hydroxycholesterol]: the senolytic effect entry in experiment [1] was “novel senolytics”. Moreover, the “cell viability of senescent vs non-senescent IMR-90 cells” value in experiment [6] is given as “specifically kill senescent human fetal lung fibroblast; also recorded: specifically kill senescent IMR-90 cells”.

The values are drawn from US20250049815A1, “25-HYDROXYCHOLESTEROL (25HC), CRYAB AGGREGATION INHIBITOR TO AMELIORIATE VASCULAR STIFFNESS” (Buck Institute for Research on Aging, priority 2021, published 2025).
